# In patent EP0266828B1, “Control of biofouling with certain alkylthioalkylamines” (THE DOW CHEMICAL COMPANY, priority 1986, dated 1988):
# Read-outs that look alike come from different tables or passages of the source.
# Columns and labels:
# Enterobacter aerogenes = assay: Minimum inhibitory concentration (MIC) procedure in agar at alkaline pH; format: cell-based; conditions: Klebsiella aerogenes; pH 8.2; 48 hours at 30°C; no high water hardness; unit ppm only from method
# Description: The agar (nutrient agar) was dispensed in 30 ml aliquots into 25 x 200 millimeter (mm) test tubes, capped and autoclaved for 15 minutes at 115°C. The test tubes containing the agar were cooled in a water bath until the temperature of the agar was 48°C and then an appropriate amount of the one percent solution of the test compound was added (except in the controls where no test compound was added) to the respective test tubes so that final concentrations of 500, 250, 100, 50, 25, 10, 5, 2.5, 1.0 and 0 parts per million (ppm) of the test compound in the agar were obtained. The afar solutions were each mixed and poured into individual petri plates so that each petri plate contained agar having a known concentration of test compound dispersed therein. After drying for 24 hours, the petri plates were inoculated with bacteria. The inoculation with bacteria was accomplished using the following procedure. Twenty-four hour cultures of the bacteria were prepared by incubating the bacteria in tubes containing nutrient broth for 24 hours at 30°C in a shaker. Dilutions of the 24 hour culture were made so that a suspension was made, containing about 10⁸ colony forming units (CFU) per ml of suspension of bacteria. Aliquots of 0.3 ml of the above suspension were used to fill individual wells of a Steer's Replicator. The Steer's Replicator was then used to inoculate the petri plates. The petri plates were incubated at 30°C for 48 hours and then read to determine if the test compound which was incorporated into the agar prevented growth of the respective bacteria. The minimum inhibitory concentration (MIC) for each bacteria was defined as the lowest concentration of the test compound which prevented growth of that bacteria. The MIC procedure substantially as described in Example 1 was performed. High water hardness was not evaluated in this study.
# algae = assay: Cooling tower trial versus duplicate tower without biocide; conditions: 15 ppm added twice a week to recirculating water; pH of 8.5; hardness of 900 ppm; two week period
# Description: In comparison, the tower without any added biocide became heavily fouled with algae in the same two week period of time.
# Aspergillus niger = assay: Kill time procedure against fungus, malt yeast agar; format: cell-based; conditions: pH of 8.2 to 8.3, read-out: Ppm of Compound that Resulted in Kill of All Cells at Various Times
# Description: (§1) Nutrient broth containing 300 ppm total organic carbon (TOC) and 800 ppm total dissolved solids (TDS), was adjusted to pH 8.5 with NaOH and dispensed in 10 ml aliquots into 18 x 150 mm test tubes. These tubes were capped and autoclaved for 15 minutes at 121°C. Immediately before use, 50 microliters (µl) of a heat sterilized solution of 31.74 g/l MgCl₂ and 73.99 g/l CaCl₂ was added to tubes designated to contain 500 ppm hardness. The tubes with and without added hardness were readjusted to pH 8.5 by addition of appropriate amounts of a filter sterilized solution of 16.8 g/l NaHCO. One hundred and eighty and 125 µl of the NaHCO solution were added, respectively, to tubes with and without added hardness to achieve a pH of 8.5.
# (§2) Unless otherwise indicated, Enterobacter aerogenes, ATCC #13048, was used as the test organism. Three 0.1 ml aliquots of a 24 hour nutrient broth culture were pipetted onto three nutrient agar plates and spread uniformly with a Petri dish spreader. After 24 hours' growth, the cells were scraped and washed off the agar surface with sterile glass rods (hockey sticks) and sterile saline solution. After vigorous mixing (vortexing) to break up clumps, the cell suspension was filtered through a sterile filter (Whatman #4) to remove residual clumps. […] Solutions with this optical density, when diluted 1:100, contained approximately 10¹⁰ CFU/ml when plated on standard nutrient agar. The exact number of organisms was determined by making serial dilutions of the cell suspension and plating them on nutrient agar plates. Each of the serial dilution tubes was also streaked on a nutrient agar plate. These streaks of known concentrations of organisms were then used as controls to determine the number of organisms in the test samples.
# (§3) Just prior to the addition of the test compounds, 0.1 ml of the cell suspension containing approximately 10¹⁰ cells/ml was added to the prepared broth tubes. Solutions of 0.1 percent weight/weight (w/w) of experimental compound were prepared immediately before use. Appropriate amounts of these solutions were added to achieve final concentrations of 100, 50, 25, 10, 5 ppm of active ingredient in broth tubes both with and/or without hardness. The tubes were then incubated at 30°C. After three and/or 24 hours, dilutions of the broth tubes were made by addition of 0.1 ml of the broth into 9.9 ml of 0.85 percent saline containing 100 ppm NaHSO₃. From the saline tube the samples were streaked with cotton swabs onto nutrient agar plates which also contained 100 ppm NaHSO₃.
# (§4) The plates were incubated for 24 hours and then read. The number of organisms present in the broth tubes was determined by comparing these plates to the control plates of the serial dilution tubes.
# The kill time procedure substantially as described in Example 2 was performed using Aspergillus niger at a pH of 8.2 to 8.3. Malt yeast agar was used instead of nutrient agar and the incubation times were extended to accommodate the slower growing fungi cells.
# [1] = test system: Enterobacter aerogenes, ATCC #13048; assay: Kill time evaluation (concentration that kills all cells); format: cell-based; conditions: Klebsiella aerogenes, ATCC13048
# Description: Hard water was prepared by sterilizing deionized water and adjusted to 500 ppm hardness and 100 ppm alkalinity by addition of 16.7 ml of sterile CaCl₂·2H₂O (36.8 g/l), 16.7 ml of sterile MgSO₄·7H₂O (12 g/l), and 5 ml of sterile NaHCO₃ (16.8 g/l) to 1 liter of water. The pH was adjusted by addition of diluted NaOH or acetic acid.
# as §1, §2, §3, §4
# Dilute (1/10) nutrient broth was prepared according to standard methods known in the art and then adjusted to a variety of pH's by the addition of NaOH and HCl. The Kill Time Procedure substantially similar to that described in Example 2 was performed. High water hardness was not evaluated in this study.
# The Kill Time Evaluation substantially similar to that described in Example 2 was performed.
# [2] = 3 hr, pH 8.5, hardness 500 ppm CaCo3, read-out: Ppm of the Compound that Kill all Cells
# [3] = 24 hr, pH 8.5, hardness 500 ppm CaCo3, read-out: Ppm of the Compound that Kill all Cells
smiles,measurement,setting,value
CCCCCCCCCCSCCN [n-decylthioethylamine],MIC,Enterobacter aerogenes,10 to 25 mg/L
same,growth of algae in the treated tower or basin,algae,prevent the growth of any algae
same,MFC,"Aspergillus niger; pH 8.2, 3 hr.",3.5 mg/L
same,MFC,"Aspergillus niger; pH 8.2, 6 hr.",0.5 to 3.5 mg/L
same,MFC,"Aspergillus niger; pH 8.2, 24 hr.",0.1 mg/L
same,MBC,[1]; [2],20 mg/L
same,MBC,[1]; [3],40 mg/L
same,MBC,"[1]; pH 5, 3 hours, dilute (1/10) nutrient broth, no high water hardness, read-out: Concentration (ppm) of DTEA That Kills all Cells in 3 Hours",50 mg/L
same,MBC,"[1]; pH 6, 3 hours, dilute (1/10) nutrient broth, no high water hardness, read-out: Concentration (ppm) of DTEA That Kills all Cells in 3 Hours",50 mg/L
same,MBC,"[1]; pH 7, 3 hours, dilute (1/10) nutrient broth, no high water hardness, read-out: Concentration (ppm) of DTEA That Kills all Cells in 3 Hours",20 mg/L
same,MBC,"[1]; pH 8, 3 hours, dilute (1/10) nutrient broth, no high water hardness, read-out: Concentration (ppm) of DTEA That Kills all Cells in 3 Hours",10 mg/L
same,MBC,"[1]; pH 9, 3 hours, dilute (1/10) nutrient broth, no high water hardness, read-out: Concentration (ppm) of DTEA That Kills all Cells in 3 Hours",5 mg/L
same,MBC,"[1]; pH 10, 3 hours, dilute (1/10) nutrient broth, no high water hardness, read-out: Concentration (ppm) of DTEA That Kills all Cells in 3 Hours",≤ 5 mg/L
same,MBC,"[1]; pH 11, 3 hours, dilute (1/10) nutrient broth, no high water hardness, read-out: Concentration (ppm) of DTEA That Kills all Cells in 3 Hours",≤ 5 mg/L
same,MBC,"[1]; pH 12, 3 hours, dilute (1/10) nutrient broth, no high water hardness, read-out: Concentration (ppm) of DTEA That Kills all Cells in 3 Hours",≤ 5 mg/L
CCCCCCCCCCCCSCCN [n-dodecylthioethylamine],MIC,Enterobacter aerogenes,50 to 100 mg/L
same,MBC,[1]; [2],50 mg/L
same,MBC,[1]; [3],150 mg/L
CCCCCCSCCN [n-hexylthioethylamine],MIC,Enterobacter aerogenes,250 to 500 mg/L
same,MBC,[1]; [2],500 mg/L
same,MBC,[1]; [3],250 mg/L
CCCCCCCCCSCCN [n-nonylthioethylamine],MIC,Enterobacter aerogenes,25 mg/L
CCCCCCCCSCCN [n-octylthioethylamine],MIC,Enterobacter aerogenes,25 mg/L
same,MFC,"Aspergillus niger; pH 8.2, 3 hr.",50 mg/L
same,MFC,"Aspergillus niger; pH 8.2, 6 hr.",25 mg/L
same,MFC,"Aspergillus niger; pH 8.2, 24 hr.",10 mg/L
same,MBC,[1]; [2],150 mg/L
same,MBC,[1]; [3],75 mg/L
CCCCCCCCCCCCCCSCCN [n-tetradecylthioethylamine],MIC,Enterobacter aerogenes,> 500 mg/L
same,MBC,[1]; [2],> 500 mg/L
same,MBC,[1]; [3],> 500 mg/L
CCCCCCCCCCCSCCN [n-undecylthioethylamine],MIC,Enterobacter aerogenes,50 mg/L
